Assay results taken from patent publication US12642269B2, “Hydrogels as carriers of active ingredients and methods of producing the same” (WinField Solutions, LLC, priority 2018, dated 2026).

Key:
gumbo plants [1] = assay: Example 3: herbicide-induced plant injury or death from carrier hydrogel precursor mixtures applied to plants, visual rating; format: in vivo; conditions: 14 days after spraying; glyphosate about 2.34% v/v, 10 gallons spray solution per acre; greenhouse; 100% = total death
Experimental: (§1) Release of an herbicide from loaded hydrogels was indirectly studied by examining plant injury or death. Hydrogel precursor mixtures were prepared according to the method 200 illustrated in FIG. 2. The precursor mixture was prepared at a lactose to methacrylic anhydride ratio of 1:0.5.
Glyphosate (as Touchdown HiTech®, Syngenta) alone (control group) or glyphosate plus hydrogel precursor mixture (test groups) was added to water to form a spray solution. The amount of glyphosate in a spray solution was approximately the same (i.e., about 2.34% v/v) for each control and test group. Test groups also included hydrogel precursor mixture at 5% v/v, 10% v/v, 20% v/v, 25% v/v, or 50% v/v of spray solution. Each group included five gumbo plants in a greenhouse. Control or test groups were sprayed at 10 gallons of spray solution per acre. In the test groups, the hydrogel precursor mixtures plus glyphosate were allowed to crosslink in ambient conditions after application to the plants.
Plant injury or death, from direct glyphosate application (control) or release of glyphosate from carrier hydrogels (tests), was measured after 14 days by a visual rating system. Results are presented in FIG. 5 as plant injury or death as a percentage, where “100% control” represents total death of a plant. […]

gumbo plants [2] = assay: Example 4: herbicide-induced plant injury or death from precursor mixtures of different lactose to methacrylic anhydride ratios, visual rating; format: in vivo; conditions: 14 days after spraying; glyphosate about 2.34% v/v, 10 gallons spray solution per acre; greenhouse; 100% = total death
Experimental: as §1, with “1:0.5, 1:0.25, or 1:0.1 (test groups).” for “1:0.5.”
Glyphosate (as Touchdown HiTech®, Syngenta) alone (control group) or glyphosate plus hydrogel precursor mixture (test groups) was added to water to form a spray solution. The amount of glyphosate in spray solution was approximately the same (i.e., about 2.34% v/v) for each control and test group. Test groups also included one of the hydrogel precursor mixtures at 5% v/v. Each group included five gumbo plants in a greenhouse. Control or test groups were sprayed at 10 gallons of spray solution per acre. In the test groups, the hydrogel precursor mixtures plus glyphosate were allowed to crosslink in ambient conditions after application to the plants.
Plant injury or death, from direct glyphosate application (control) or release of glyphosate from carrier hydrogels (tests), was measured after 14 days by a visual rating system. Results are presented in FIG. 5 as plant injury or death as a percentage, where “100% control” represents total death of a plant. The same letter attributed to more than one group indicates no statistically significant difference between those groups. […]

For `O=C(O)CNCP(=O)(O)O` [Glyphosate, N-(phosphonomethyl)glycine], the “Plant injury or death (average damage on plants)” value (gumbo plants [1]) was 85% and the “Plant injury or death (average damage on plants)” value (gumbo plants [2]) was 55%.
